Data taken from ChEMBL document CHEMBL4152362, “Discovery of DS-6930, a potent selective PPARγ modulator. Part II: Lead optimization” (Bioorg Med Chem, 2018).
Converted amounts (≈) assume the structure as drawn. The source made the active and inactive calls. The rule behind the calls is not given here.

Key:
[1] = molecular target: T1, Peroxisome proliferator-activated receptor gamma (Homo sapiens, UniProt P37231); assay: Agonist activity at recombinant human GAL4-DBD fused PPARgamma LBD expressed in COS7 cells after 24 hrs by luciferase reporter gene assay; format: cell-based
T1 sequence (P37231 whole entry): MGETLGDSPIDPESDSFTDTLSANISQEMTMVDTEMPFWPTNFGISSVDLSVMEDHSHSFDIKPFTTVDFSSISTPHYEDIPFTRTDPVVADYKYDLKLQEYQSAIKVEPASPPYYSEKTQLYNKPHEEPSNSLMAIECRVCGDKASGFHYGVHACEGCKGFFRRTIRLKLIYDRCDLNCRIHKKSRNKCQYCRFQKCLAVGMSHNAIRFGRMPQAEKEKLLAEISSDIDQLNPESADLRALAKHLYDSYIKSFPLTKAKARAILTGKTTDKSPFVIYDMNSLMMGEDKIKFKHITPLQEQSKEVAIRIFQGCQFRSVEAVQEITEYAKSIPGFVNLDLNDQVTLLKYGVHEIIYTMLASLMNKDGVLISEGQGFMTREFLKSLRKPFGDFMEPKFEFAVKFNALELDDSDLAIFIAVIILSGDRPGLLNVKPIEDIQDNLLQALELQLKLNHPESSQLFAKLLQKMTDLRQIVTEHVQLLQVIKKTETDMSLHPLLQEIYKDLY

[2] = molecular target: T2, Peroxisome proliferator-activated receptor alpha (Homo sapiens, UniProt Q07869); assay: Agonist activity at recombinant human GAL4-DBD fused PPARalpha LBD expressed in COS7 cells after 24 hrs by luciferase reporter gene assay; format: cell-based
T2 sequence (Q07869 whole entry): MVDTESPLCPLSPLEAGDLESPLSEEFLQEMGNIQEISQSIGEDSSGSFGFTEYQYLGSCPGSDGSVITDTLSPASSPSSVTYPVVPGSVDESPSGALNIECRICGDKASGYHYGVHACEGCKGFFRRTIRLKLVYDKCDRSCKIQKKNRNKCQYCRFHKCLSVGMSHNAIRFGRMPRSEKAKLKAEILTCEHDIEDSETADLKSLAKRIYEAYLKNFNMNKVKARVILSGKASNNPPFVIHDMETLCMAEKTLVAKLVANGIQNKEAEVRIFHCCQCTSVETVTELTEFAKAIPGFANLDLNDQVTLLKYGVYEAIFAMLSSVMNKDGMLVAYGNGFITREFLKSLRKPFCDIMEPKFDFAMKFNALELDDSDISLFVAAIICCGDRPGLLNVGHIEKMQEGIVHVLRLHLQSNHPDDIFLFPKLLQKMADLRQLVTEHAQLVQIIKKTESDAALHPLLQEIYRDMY

[3] = Aqueous thermodynamic solubility of the compound in pH 6.8 solution up to 4 hrs by HPLC-UV analysis; format: physicochemical; conditions: read-out: Therm_solubility
[4] = Metabolic stability in human liver microsomes after 0.5 hrs; format: ADME, microsome; conditions: read-out: Stability
[5] = molecular target: T3, Peroxisome proliferator-activated receptor alpha (Homo sapiens) (UniProt Q07869); assay: Agonist activity at recombinant human GAL4-DBD fused PPARalpha LBD expressed in COS7 cells at 10 uM after 24 hrs by luciferase reporter gene assay relative to 2-(4-tert-Butylphenoxy)-3-[4-[2-[(4-pyridin-2-ylbenzoyl)amino]ethoxy] phenyl]propionic acid; format: cell-based
T3 sequence (whole entry): T2 sequence (Q07869 whole entry)

[6] = molecular target: T4, Peroxisome proliferator-activated receptor gamma (Homo sapiens) (UniProt P37231); assay: Agonist activity at recombinant human GAL4-DBD fused PPARgamma LBD expressed in COS7 cells at 10 uM after 24 hrs by luciferase reporter gene assay relative to rosiglitazone; format: cell-based
T4 sequence (whole entry): T1 sequence (P37231 whole entry)

[7] = Apparent permeability of the compound after 4 hrs by PAMPA; format: ADME
[8] = 1-octanol/PBS distribution co-efficient, log D of the compound at […] at pH 7.4 after 30 mins by HPLC-MS/MS method; format: physicochemical
[9] = molecular target: T5, Peroxisome proliferator-activated receptor delta (Homo sapiens) (UniProt Q03181); assay: Agonist activity at PPARdelta (unknown origin) at 10 uM
T5 sequence (whole entry): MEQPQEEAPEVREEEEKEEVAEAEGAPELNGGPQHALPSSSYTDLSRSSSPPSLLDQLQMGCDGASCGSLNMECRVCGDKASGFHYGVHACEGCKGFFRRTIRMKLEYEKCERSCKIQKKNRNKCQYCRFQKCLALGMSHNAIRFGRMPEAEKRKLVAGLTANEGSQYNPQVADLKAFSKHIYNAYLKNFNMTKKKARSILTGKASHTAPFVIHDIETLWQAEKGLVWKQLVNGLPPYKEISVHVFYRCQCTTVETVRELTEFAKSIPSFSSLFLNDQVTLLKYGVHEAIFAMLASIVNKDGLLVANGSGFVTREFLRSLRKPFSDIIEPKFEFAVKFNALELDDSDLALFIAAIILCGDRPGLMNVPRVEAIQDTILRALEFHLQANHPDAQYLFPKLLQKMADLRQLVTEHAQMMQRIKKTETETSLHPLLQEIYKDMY

Row | EC50 [1] | EC50 [2] | solubility thermodynamic at 4 h [3] | remaining at 0.5 h [4] | Emax [5] | Emax [6] | Papp at 4 h [7] | logD at 0.5 h [8] | Activity [9] | SMILES
1 | 129 nM | > 10000 nM | 31 µg/mL (≈ 79.6 µM) | 94% | 4% | 42% | 4.8 ×10⁻⁶ cm/s | 0.9 |  | Cc1ccc(Oc2ccc3nc(COc4cccc(C(=O)O)c4)n(C)c3c2)nc1
2 | 1170 nM | > 10000 nM | 11 µg/mL (≈ 25.7 µM) | 98% | 15% | 73% | 11.2 ×10⁻⁶ cm/s | 1.4 | inactive | Cn1c(COc2cccc(C(=O)O)c2)nc2cnc(Oc3ccc(Cl)c(F)c3)cc21
3 |  |  |  |  | 4% | 74% |  |  |  | Cc1cnc(Oc2ccc3nc(COc4cccc(C(=O)O)c4)n(C)c3c2)c(F)c1
4 |  | > 10000 nM | 14 µg/mL (≈ 34.4 µM) | 93% | 2% | 100% | 8.3 ×10⁻⁶ cm/s | 1.1 |  | Cc1cc(F)cnc1Oc1ccc2nc(COc3cccc(C(=O)O)c3)n(C)c2c1
5 | 736 nM | > 10000 nM | 7.7 µg/mL (≈ 18.8 µM) | 98% | 13% | 67% | 7.6 ×10⁻⁶ cm/s | 1.2 |  | Cn1c(COc2cccc(C(=O)O)c2)nc2ccc(Oc3cccc(Cl)n3)cc21
6 | 615 nM | > 10000 nM | 11 µg/mL (≈ 26.8 µM) |  | 11% | 93% | 10.3 ×10⁻⁶ cm/s | 1.2 |  | Cn1c(COc2cccc(C(=O)O)c2)nc2ccc(Oc3cc(Cl)ccn3)cc21
7 |  |  | 160 µg/mL | 100% |  | 61% |  | 1.2 | inactive | Cl.Cl.Cn1c(COc2cccc(C(=O)O)c2)nc2ccc(Oc3ccccc3)nc21
8 | 351 nM | > 10000 nM | 37 µg/mL (≈ 95 µM) | 100% | 8% | 83% | 6 ×10⁻⁶ cm/s | 0.9 |  | Cc1cccnc1Oc1ccc2nc(COc3cccc(C(=O)O)c3)n(C)c2c1
9 | 746 nM | > 10000 nM | 360 µg/mL (≈ 924 µM) | 80% | 6% | 80% | 6.8 ×10⁻⁶ cm/s | 1 | inactive | Cc1ccc(Oc2cc3c(cn2)nc(COc2cccc(C(=O)O)c2)n3C)cc1
10 | 717 nM | > 10000 nM | 85 µg/mL (≈ 211 µM) |  | 7% | 117% | 11 ×10⁻⁶ cm/s | 1.4 |  | Cc1ccc(C)c(Oc2ccc3nc(COc4cccc(C(=O)O)c4)n(C)c3c2)n1
11 | 269 nM | > 10000 nM | 1.7 µg/mL (≈ 3.97 µM) | 92% | 45% | 88% | 25.6 ×10⁻⁶ cm/s | 2.2 | inactive | Cn1c(COc2cccc(C(=O)O)c2)nc2ccc(Oc3ccc(Cl)c(F)c3)nc21
12 | 12400 nM |  |  |  |  | 65% |  |  |  | COC(=O)c1cccc(OCc2nc3ccc(Oc4ccccc4)nc3n2C)c1
13 | 335 nM | > 10000 nM | 79 µg/mL (≈ 189 µM) | 100% | 4% | 59% | 3.6 ×10⁻⁶ cm/s | 0.6 | inactive | Cn1c(COc2cccc(C(=O)O)c2)nc2cnc(Oc3ccc4c(c3)OCC4)cc21
14 | 1060 nM |  | 11 µg/mL (≈ 28 µM) | 78% | 55% | 62% | 8.6 ×10⁻⁶ cm/s | 1.5 | inactive | Cn1c(COc2cccc(C(=O)O)c2)nc2ccc(Oc3ccc(F)cc3)nc21
15 | 41 nM | > 10000 nM | 0.5 µg/mL (≈ 1.24 µM) | 71% | 19% | 83% | 17.4 ×10⁻⁶ cm/s | 2.3 | inactive | Cc1cc(C)cc(Oc2ccc3nc(COc4cccc(C(=O)O)c4)n(C)c3n2)c1
16 | 1890 nM | > 10000 nM | 92 µg/mL (≈ 236 µM) | 100% | 1% | 78% | 2.7 ×10⁻⁶ cm/s | 0.8 |  | Cc1cccc(Oc2ccc3nc(COc4cccc(C(=O)O)c4)n(C)c3c2)n1
17 | 1130 nM | > 10000 nM | 62 µg/mL (≈ 165 µM) | 100% | 1% | 74% | 2.2 ×10⁻⁶ cm/s | 0.4 |  | Cn1c(COc2cccc(C(=O)O)c2)nc2ccc(Oc3ccccn3)cc21
18 | 90 nM | > 10000 nM | 16 µg/mL (≈ 39.7 µM) | 73% | 30% | 74% | 12.4 ×10⁻⁶ cm/s | 2.2 | inactive | Cc1ccc(Oc2ccc3nc(COc4cccc(C(=O)O)c4)n(C)c3n2)cc1C
19 | 280 nM | > 10000 nM | 7.1 µg/mL (≈ 18 µM) | 100% | 3% | 80% | 3.9 ×10⁻⁶ cm/s | 0.6 |  | Cn1c(COc2cccc(C(=O)O)c2)nc2ccc(Oc3ncccc3F)cc21
20 | 101 nM | > 10000 nM | 0.9 µg/mL (≈ 2.23 µM) | 63% | 17% | 75% | 28.8 ×10⁻⁶ cm/s | 2.3 | inactive | Cc1ccc(Oc2ccc3nc(COc4cccc(C(=O)O)c4)n(C)c3n2)c(C)c1
21 | 50 nM |  | 5.2 µg/mL (≈ 12.8 µM) | 96% | 56% | 80% | 14.8 ×10⁻⁶ cm/s | 2.1 | inactive | Cc1ccc(Oc2ccc3nc(COc4cccc(C(=O)O)c4)n(C)c3n2)cc1F
22 | 808 nM | > 10000 nM | 79 µg/mL (≈ 201 µM) |  | 5% | 87% | 4.7 ×10⁻⁶ cm/s | 0.6 |  | Cn1c(COc2cccc(C(=O)O)c2)nc2ccc(Oc3ccc(F)cn3)cc21

Row | SMILES | EC50 [1] | EC50 [2] | solubility thermodynamic at 4 h [3] | remaining at 0.5 h [4] | Emax [5] | Emax [6] | Papp at 4 h [7] | logD at 0.5 h [8] | Activity [9]
23 | Cc1ccnc(Oc2ccc3nc(COc4cccc(C(=O)O)c4)n(C)c3c2)c1 | 458 nM | > 10000 nM | 33 µg/mL (≈ 84.7 µM) |  | 2% | 41% | 3.5 ×10⁻⁶ cm/s | 0.8 | 
24 | Cc1ccc(Oc2ccc3nc(COc4cccc(C(=O)O)c4)n(C)c3c2)nc1C | 176 nM | > 10000 nM | 190 µg/mL (≈ 471 µM) | 100% | 8% | 81% | 7.7 ×10⁻⁶ cm/s | 1.3 | 
25 | Cn1c(COc2cccc(C(=O)O)c2)nc2ccc(Oc3ncccc3Cl)cc21 | 200 nM | > 10000 nM | 15 µg/mL (≈ 36.6 µM) | 99% | 6% | 93% | 8.1 ×10⁻⁶ cm/s | 1.1 | 
